Values of other authors in paper PMC9972852, “Multivalent effect of peptide functionalized polymeric nanoparticles towards selective prostate cancer targeting” (Nanoscale Advances, 2023).

Test system: extracellular domain of PSMA
Conditions: monomeric peptide WQPDTAHHWATL
Description: Prostate specific membrane antigen (PSMA) is a 100 kDa type II transmembrane glycosylated protein with folate hydrolase activity and is overexpressed not only in nearly all prostate cancer cells,[6] but also in tumor neovasculature in a variety of cancers.[6–8] In contrast, it has minimal expression (100–1000 times lower) in normal prostate epithelium tissues and other normal tissues,[7,9] making it an ideal biomarker for the design of various targeted therapies. Several different kinds of targeting ligands against PSMA have been discovered over the years;[10–12] however, they have not yet had ...

In the case of “WQPDTAHHWATLC [WQP peptide, PSMA-targeting cell targeting peptide …, synthesized with an added C-terminal cysteine]”, the “Binding affinity to the extracellular domain of PSMA” value is listed as “moderate/low”.
